Reference: patent publication EP4741394A1, “CRYSTAL FORM OF [1,2,4]TRIAZOLO[4,3-B]PYRIDAZINE COMPOUND, AND PREPARATION METHOD THEREFOR AND USE THEREOF” (Beijing Pearl Biotechnology Limited Liability Company, priority 2023, dated 2025)

What was measured:
Format in all cases: physicochemical
[1] = Thermal and moisture stability of crystal forms (HPLC and XRPD after storage in a stability test chamber); details: for degradation: under the test conditions of Table 1; for crystal form change (overlay of XRPD forms): under the test conditions, FIGS. 15 and 16
Description: (§1) The crystal form of the samples was analyzed using a Bruker D8 ADVANCE or Bruker D8 Focus X-ray powder diffractometer. The samples were scanned with the 2θ scanning angle of 3° to 42°, the scanning step of 0.02°, and the scanning time of 0.05 s or 0.1 s or 0.2 s per step. The voltage and current for fluorescent tubes were 40 kV and 40 mA, respectively. During sample preparation, an appropriate amount of samples were placed on a sample tray and flattened with a glass sheet or other tools to ensure a smooth and flat surface.
Solubility and stability tests were carried out using Agilient 1260 HPLC under the following conditions: column: ZORBAX Eclipse Plus Cl8 4.6* 100 mm 3.5-Micron; flow rate: 1 mL/min; column temperature: 35 °C; injection volume: 10 µL; mobile phases: mobile phase A: 0.02 mol/L potassium dihydrogen phosphate, and mobile phase B: ACN; running time: 40 min; detector: UV at 210 nm; diluent: ACN; and injection concentration: 0.2 mg/mL.
A certain amount of samples of the crystal forms A (prepared according to the preparation method 1 of Example 1) and B (prepared according to the method of Example 2) of the compound of formula (I) were placed into a stability test chamber, and taken out for HPLC and XRPD testing after a certain period of time.
Test conditions were as follows: under open conditions at 25 °C with 60% RH (25 °C/60% RH) or at 40 °C with 75% RH (40 °C/75% RH), HPLC and XRPD was characterized after one week, two weeks, 1 month and 2 months respectively; and HPLC and XRPD were characterized under closed conditions at 80 °C for one day and under closed conditions with lighting for 10 days, respectively. Table 1: Results of Stability of Crystal Forms A and B

[2] = Stability of crystal forms in aqueous medium at 37 °C (XRPD of solids from 5 mg/mL suspension); details: for XRPD: 37 °C; for crystal form transformation: 24 hours
Description: as §1
Table 2: Results of Stability of Crystal Forms A and B in Aqueous Medium at 37 °C

[3] = Solid dispersion by hot-melt extrusion with Povidone K30: content of related substance D1 and of active ingredient; details: for Content of related substance D1 in starting material: before hot-melt extrusion, Not detected: detected content < 0.0045%; for Content of active pharmaceutical ingredient in sample / Content of related substance D1 in sample: solid dispersion, Povidone K30 1:3, hot-melt extrusion up to 200 °C
From the text: Under the same hot-melt extrusion conditions, the contents of related substance D1 in the solid dispersions prepared from the crystal forms A (prepared according to the preparation method 1 of Example 1) and B (prepared according to the preparation method of Example 2) were investigated, respectively. The structure of the related substance D1 is represented by formula (II). [drawing 4]
Preparation of solid dispersion by hot-melt extrusion: the active pharmaceutical ingredient of crystal form A (prepared according to the preparation method 1 of Example 1) or B (prepared according to the method of Example 2) and Povidone K30 were weighed respectively and then evenly mixed at a ratio of 1:3; after the temperature of each temperature zone for hot-melt […] reached 130 °C, 150 °C, 180 °C, 195 °C, 200 °C, 200 °C, 200 °C, and 200 °C and balanced for 15 min, the mixture was added to the hopper of an extruder; and the resulting solids were collected and left to cool at room temperature, and then tested for the content of the related substance D1, respectively. Table 3: Results of Prepared Samples of Crystal Forms A and B
Not detected: the detected content of related substance D1 was < 0.0045%.

[4] = Hygroscopic weight gain test
Description: On Days 0, 20 and 25, the samples were set out respectively, with the temperature and humidity conditions controlled to 25 ± 2 °C/75 ± 5% RH and 25 ± 2 °C/90 ± 5% RH. All samples were sampled and weighed on Day 30 to calculate the hygroscopic weight gain (%).

[5] = Impact of drying conditions on crystal form stability (XRPD); details: wet samples dried at 40 °C or 60 °C under vacuum, or under nitrogen at room temperature or 40 °C; 0 h to 48 h
Description: as §1

[6] = FeSSIF, 24 h (first FeSSIF line)
[7] = FeSSIF, 24 h (second FeSSIF line)

In the case of `Cn1cc2cc(C(F)(F)c3nnc4ccc(-c5cnn(C6CC6)c5)nn34)c(F)cc2n1` [Crystal form A], the “Degradation (%)” value ([1]; 25 °C/60% RH, open, 1 month) is reported as 0%, the “Purity (%)” value ([1]; 25 °C/60% RH, open, 1 month) is reported as 99.98% and the XRPD ([1]; 25 °C/60% RH, open, 1 month) is reported as “Unchanged”. The “Degradation (%)” value ([1]; 25 °C/60% RH, open, 1 week) was 0%, the “Purity (%)” value ([1]; 25 °C/60% RH, open, 1 week) was 99.98% and the XRPD ([1]; 25 °C/60% RH, open, 1 week) was “Unchanged”. For the same compound, the “Degradation (%)” value ([1]; 25 °C/60% RH, open, 2 months) was 0%, the “Purity (%)” value ([1]; 25 °C/60% RH, open, 2 months) was 99.98% and the XRPD ([1]; 25 °C/60% RH, open, 2 months) was “Unchanged”. For the same compound, the “Degradation (%)” value ([1]; 25 °C/60% RH, open, 2 weeks) was 0%, the “Purity (%)” value ([1]; 25 °C/60% RH, open, 2 weeks) was 99.98% and the XRPD ([1]; 25 °C/60% RH, open, 2 weeks) was “Unchanged”. For the same compound, the “Degradation (%)” value ([1]; 40 °C/75% RH, open, 1 month) was 0%, the “Purity (%)” value ([1]; 40 °C/75% RH, open, 1 month) was 99.98% and the XRPD ([1]; 40 °C/75% RH, open, 1 month) was “Unchanged”. For the same compound, the “Degradation (%)” value ([1]; 40 °C/75% RH, open, 1 week) was 0.01%, the “Purity (%)” value ([1]; 40 °C/75% RH, open, 1 week) was 99.97% and the XRPD ([1]; 40 °C/75% RH, open, 1 week) was “Unchanged”. For the same compound, the “Degradation (%)” value ([1]; 40 °C/75% RH, open, 2 months) was 0.01%, the “Purity (%)” value ([1]; 40 °C/75% RH, open, 2 months) was 99.97% and the XRPD ([1]; 40 °C/75% RH, open, 2 months) was “Unchanged”. For the same compound, the “Degradation (%)” value ([1]; 40 °C/75% RH, open, 2 weeks) was 0%, the “Purity (%)” value ([1]; 40 °C/75% RH, open, 2 weeks) was 99.98% and the XRPD ([1]; 40 °C/75% RH, open, 2 weeks) was “Unchanged”. For the same compound, the “Degradation (%)” value ([1]; 80 °C, closed, 1 d) was 0%, the “Purity (%)” value ([1]; 80 °C, closed, 1 d) was 99.98% and the XRPD ([1]; 80 °C, closed, 1 d) was “Unchanged”. The “Degradation (%)” value ([1]; Lighting control, 10 d) was 0%, the “Purity (%)” value ([1]; Lighting control, 10 d) was 99.98% and the XRPD ([1]; Lighting control, 10 d) was “Unchanged”. For the same compound, the “Degradation (%)” value ([1]; Lighting, closed, 10 d) was 0%, the “Purity (%)” value ([1]; Lighting, closed, 10 d) was 99.98% and the XRPD ([1]; Lighting, closed, 10 d) was “Unchanged”. The “Purity (%)” value ([1]; Start) was 99.98%, the degradation [1] was “almost no degradation” and the “crystal form change (overlay of XRPD forms)” value [1] was “have not changed”. For the same compound, the XRPD ([2]; FaSSIF, 24 h) was “Unchanged”, the XRPD [2, 6] was “Unchanged” and the XRPD [2, 7] was “Unchanged”. The XRPD ([2]; Water, 24 h) was “Crystal form B”, the crystal form transformation ([2]; buffers of different pHs and water) was “transformed to the crystal form B” and the XRPD ([2]; pH 1.2 buffer, 24 h) was “Crystal form B”. For the same compound, the XRPD ([2]; pH 3.0 buffer, 24 h) was “Crystal form B”, the XRPD ([2]; pH 4.5 buffer, 24 h) was “Crystal form B” and the XRPD ([2]; pH 6.8 buffer, 24 h) was “Crystal form B”. For the same compound, the XRPD ([2]; pH 7.4 buffer, 24 h) was “Crystal form B”, the crystal form transformation ([2]; simulated biological media) was “without crystal form transformation” and the “Content of related substance D1 in starting material” value [3] was “Not detected”. The “Content of active pharmaceutical ingredient in sample” value [3] was 101.6% and the “Content of related substance D1 in sample” value [3] was 0.08%.

With `Cn1cc2cc(C(F)(F)c3nnc4ccc(-c5cnn(C6CC6)c5)nn34)c(F)cc2n1` [Crystal form B] the “Degradation (%)” value ([1]; 25 °C/60% RH, open, 1 month) was 0%, the “Purity (%)” value ([1]; 25 °C/60% RH, open, 1 month) was 99.98% and the XRPD ([1]; 25 °C/60% RH, open, 1 month) was “Unchanged”. The “Degradation (%)” value ([1]; 25 °C/60% RH, open, 1 week) was 0%, the “Purity (%)” value ([1]; 25 °C/60% RH, open, 1 week) was 99.98% and the XRPD ([1]; 25 °C/60% RH, open, 1 week) was “Unchanged”. The “Degradation (%)” value ([1]; 25 °C/60% RH, open, 2 months) was 0.01%, the “Purity (%)” value ([1]; 25 °C/60% RH, open, 2 months) was 99.97% and the XRPD ([1]; 25 °C/60% RH, open, 2 months) was “Unchanged”. The “Degradation (%)” value ([1]; 25 °C/60% RH, open, 2 weeks) was 0%, the “Purity (%)” value ([1]; 25 °C/60% RH, open, 2 weeks) was 99.98% and the XRPD ([1]; 25 °C/60% RH, open, 2 weeks) was “Unchanged”. The “Degradation (%)” value ([1]; 40 °C/75% RH, open, 1 month) was 0%, the “Purity (%)” value ([1]; 40 °C/75% RH, open, 1 month) was 99.98% and the XRPD ([1]; 40 °C/75% RH, open, 1 month) was “Unchanged”. The “Degradation (%)” value ([1]; 40 °C/75% RH, open, 1 week) was 0.01%, the “Purity (%)” value ([1]; 40 °C/75% RH, open, 1 week) was 99.97% and the XRPD ([1]; 40 °C/75% RH, open, 1 week) was “Unchanged”. The “Degradation (%)” value ([1]; 40 °C/75% RH, open, 2 months) was 0.02%, the “Purity (%)” value ([1]; 40 °C/75% RH, open, 2 months) was 99.96% and the XRPD ([1]; 40 °C/75% RH, open, 2 months) was “Unchanged”. The “Degradation (%)” value ([1]; 40 °C/75% RH, open, 2 weeks) was -0.01%, the “Purity (%)” value ([1]; 40 °C/75% RH, open, 2 weeks) was 99.99% and the XRPD ([1]; 40 °C/75% RH, open, 2 weeks) was “Unchanged”. For the same compound, the “Degradation (%)” value ([1]; 80 °C, closed, 1 d) was 0.01%, the “Purity (%)” value ([1]; 80 °C, closed, 1 d) was 99.97% and the XRPD ([1]; 80 °C, closed, 1 d) was “Unchanged”. The “Degradation (%)” value ([1]; Lighting control, 10 d) was 0%, the “Purity (%)” value ([1]; Lighting control, 10 d) was 99.98% and the XRPD ([1]; Lighting control, 10 d) was “Unchanged”. The “Degradation (%)” value ([1]; Lighting, closed, 10 d) was 0%, the “Purity (%)” value ([1]; Lighting, closed, 10 d) was 99.98% and the XRPD ([1]; Lighting, closed, 10 d) was “Unchanged”. For the same compound, the “Purity (%)” value ([1]; Start) was 99.98%, the degradation [1] was “almost no degradation” and the “crystal form change (overlay of XRPD forms)” value [1] was “have not changed”. The XRPD ([2]; FaSSIF, 24 h) was “Unchanged”, the XRPD [2, 6] was “Unchanged” and the XRPD [2, 7] was “Unchanged”. The XRPD ([2]; Water, 24 h) was “Unchanged”, the crystal form change ([2]; all media) was “no change” and the XRPD ([2]; pH 1.2 buffer, 24 h) was “Unchanged”. The XRPD ([2]; pH 3.0 buffer, 24 h) was “Unchanged”, the XRPD ([2]; pH 4.5 buffer, 24 h) was “Unchanged” and the XRPD ([2]; pH 6.8 buffer, 24 h) was “Unchanged”. The XRPD ([2]; pH 7.4 buffer, 24 h) was “Unchanged”, the “Content of related substance D1 in starting material” value [3] was “Not detected” and the “Content of active pharmaceutical ingredient in sample” value [3] was 101.8%. The “Content of related substance D1 in sample” value [3] was 0.05%, the “Hygroscopic weight gain (%)” value ([4]; 25 + 2°C/90 + 5% RH, 5 days) was 1% and the “Hygroscopic weight gain (%)” value ([4]; 25 + 2°C/90 + 5% RH, 10 days) was 1%. The “Hygroscopic weight gain (%)” value ([4]; 25 + 2°C/90 + 5% RH, 30 days) was 1%, the “Hygroscopic weight gain (%)” value ([4]; 25 ± 2°C/75 + 5% RH, 5 days) was 1% and the “Hygroscopic weight gain (%)” value ([4]; 25 ± 2°C/75 + 5% RH, 10 days) was 1%. The “Hygroscopic weight gain (%)” value ([4]; 25 ± 2°C/75 + 5% RH, 30 days) was 1%, the hygroscopic weight gain ([4]; high humidity conditions for 5 days, 10 days and 30 days (text summary; less than 2%, slight hygroscopicity)) was “approximately 1%” and the “crystal form during drying (XRPD)” value [5] was “no other crystal forms appear during drying”.
